The target of assay [1] is ALK tyrosine kinase receptor (Homo sapiens, UniProt Q9UM73). The format is subcellular, K-562, COLO 205, SK-N-BE(2) and MV-4-11, Cell lysate. The note with it: read-out: Kd apparent.
Assay [2] addresses T1, Tyrosine-protein kinase Mer (Homo sapiens, UniProt Q12866).
T1 sequence (Q12866 whole entry): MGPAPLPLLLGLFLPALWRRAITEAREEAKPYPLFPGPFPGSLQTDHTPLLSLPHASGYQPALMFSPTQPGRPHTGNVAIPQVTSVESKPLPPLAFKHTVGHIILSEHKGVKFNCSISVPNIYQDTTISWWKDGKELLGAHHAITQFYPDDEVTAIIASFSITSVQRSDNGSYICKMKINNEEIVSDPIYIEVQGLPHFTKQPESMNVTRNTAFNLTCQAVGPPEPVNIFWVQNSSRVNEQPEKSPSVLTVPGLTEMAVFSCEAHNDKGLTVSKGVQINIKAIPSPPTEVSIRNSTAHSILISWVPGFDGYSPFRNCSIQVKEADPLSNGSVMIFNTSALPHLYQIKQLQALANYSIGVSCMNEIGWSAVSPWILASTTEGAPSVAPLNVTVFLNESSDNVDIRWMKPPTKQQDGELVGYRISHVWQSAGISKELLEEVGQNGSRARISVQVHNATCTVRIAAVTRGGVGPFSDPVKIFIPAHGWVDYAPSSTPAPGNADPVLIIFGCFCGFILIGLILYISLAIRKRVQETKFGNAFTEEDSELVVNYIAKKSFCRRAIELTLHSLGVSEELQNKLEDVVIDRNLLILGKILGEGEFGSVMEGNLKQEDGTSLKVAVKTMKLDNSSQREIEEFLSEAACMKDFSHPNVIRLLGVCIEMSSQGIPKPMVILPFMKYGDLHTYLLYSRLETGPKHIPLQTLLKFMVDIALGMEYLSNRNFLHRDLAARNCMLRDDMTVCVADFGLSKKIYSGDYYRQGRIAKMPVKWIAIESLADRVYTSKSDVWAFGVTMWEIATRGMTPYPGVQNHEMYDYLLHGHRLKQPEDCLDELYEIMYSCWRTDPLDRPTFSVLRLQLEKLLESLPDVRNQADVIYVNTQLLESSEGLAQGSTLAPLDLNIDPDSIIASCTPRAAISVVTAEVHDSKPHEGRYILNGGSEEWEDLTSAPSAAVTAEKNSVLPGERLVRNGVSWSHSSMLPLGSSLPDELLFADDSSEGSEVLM

Assay [3] has as its target Serine/threonine-protein kinase Nek7 (Homo sapiens, UniProt Q8TDX7).
In assay [4] the target is Serine/threonine-protein kinase 38-like (Homo sapiens, UniProt Q9Y2H1).
The target of assay [5] is Activin receptor type-1-like (Homo sapiens, UniProt P37023).
The target of assay [6] is Eukaryotic peptide chain release factor GTP-binding subunit ERF3B (Homo sapiens, UniProt Q8IYD1).
The target in assay [7] is MAP kinase-activated protein kinase 3 (Homo sapiens, UniProt Q16644).
The target of assay [8] is Cyclin-dependent kinase 10 (Homo sapiens, UniProt Q15131).
Assay [9] concerns the target T2, Dual specificity mitogen-activated protein kinase kinase 4 (Homo sapiens, UniProt P45985).
T2 sequence (P45985 whole entry): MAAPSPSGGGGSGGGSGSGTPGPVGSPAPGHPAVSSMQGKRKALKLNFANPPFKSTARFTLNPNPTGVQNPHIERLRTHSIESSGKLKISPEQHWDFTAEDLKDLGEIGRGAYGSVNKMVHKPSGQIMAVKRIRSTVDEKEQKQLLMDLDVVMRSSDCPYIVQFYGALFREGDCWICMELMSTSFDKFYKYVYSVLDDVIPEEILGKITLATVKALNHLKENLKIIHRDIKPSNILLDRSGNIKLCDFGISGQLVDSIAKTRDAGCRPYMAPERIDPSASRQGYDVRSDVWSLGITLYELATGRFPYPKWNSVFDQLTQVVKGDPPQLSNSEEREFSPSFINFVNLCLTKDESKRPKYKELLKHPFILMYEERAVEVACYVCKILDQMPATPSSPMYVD

For assay [10], the target named is Serine/threonine-protein kinase 38 (Homo sapiens, UniProt Q15208).
The target in assay [11] is Dual specificity tyrosine-phosphorylation-regulated kinase 1B (Homo sapiens, UniProt Q9Y463).
For assay [12], the target named is Tyrosine-protein kinase JAK2 (Homo sapiens, UniProt O60674).
Assay [13] deals with Tyrosine-protein kinase Fgr (Homo sapiens, UniProt P09769).

Activity calls are given as the source filed them. On the calls: in the data inactive means no Kd found up to 30 µM. Bounds are passed on as bounds.

Tyrosine-protein kinase Fgr, sequence (P09769 whole entry): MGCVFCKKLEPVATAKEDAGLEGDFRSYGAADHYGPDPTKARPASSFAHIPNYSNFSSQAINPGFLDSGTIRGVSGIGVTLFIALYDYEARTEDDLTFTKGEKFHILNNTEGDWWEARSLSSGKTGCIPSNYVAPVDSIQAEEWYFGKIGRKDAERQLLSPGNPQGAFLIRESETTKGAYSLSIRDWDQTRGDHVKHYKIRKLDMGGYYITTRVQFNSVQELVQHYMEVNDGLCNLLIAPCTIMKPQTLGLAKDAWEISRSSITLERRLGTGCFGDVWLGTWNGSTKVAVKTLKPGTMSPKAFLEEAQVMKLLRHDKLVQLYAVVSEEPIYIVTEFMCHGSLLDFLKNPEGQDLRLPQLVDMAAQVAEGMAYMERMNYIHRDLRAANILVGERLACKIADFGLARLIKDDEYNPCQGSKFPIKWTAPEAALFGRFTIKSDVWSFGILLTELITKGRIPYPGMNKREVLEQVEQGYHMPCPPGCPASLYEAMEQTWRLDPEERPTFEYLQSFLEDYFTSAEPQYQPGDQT
Dual specificity tyrosine-phosphorylation-regulated kinase 1B, sequence (Q9Y463 whole entry): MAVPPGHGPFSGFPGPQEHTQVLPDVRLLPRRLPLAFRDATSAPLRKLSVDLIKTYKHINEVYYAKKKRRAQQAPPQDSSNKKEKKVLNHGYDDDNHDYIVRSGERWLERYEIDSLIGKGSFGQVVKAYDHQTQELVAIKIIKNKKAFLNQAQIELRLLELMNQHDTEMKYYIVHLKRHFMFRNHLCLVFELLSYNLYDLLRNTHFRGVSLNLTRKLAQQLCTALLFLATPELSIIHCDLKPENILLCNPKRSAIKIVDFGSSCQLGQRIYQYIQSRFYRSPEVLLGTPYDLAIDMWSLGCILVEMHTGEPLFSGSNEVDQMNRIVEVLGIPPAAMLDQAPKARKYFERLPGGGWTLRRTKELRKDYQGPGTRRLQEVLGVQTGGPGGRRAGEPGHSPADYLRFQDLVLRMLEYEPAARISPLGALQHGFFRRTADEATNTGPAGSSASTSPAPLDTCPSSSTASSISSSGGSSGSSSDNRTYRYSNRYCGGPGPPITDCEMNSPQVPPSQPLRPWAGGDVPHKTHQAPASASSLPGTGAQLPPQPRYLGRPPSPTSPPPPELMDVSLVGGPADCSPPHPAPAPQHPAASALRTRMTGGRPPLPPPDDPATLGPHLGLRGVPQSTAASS
Serine/threonine-protein kinase Nek7, sequence (Q8TDX7 whole entry): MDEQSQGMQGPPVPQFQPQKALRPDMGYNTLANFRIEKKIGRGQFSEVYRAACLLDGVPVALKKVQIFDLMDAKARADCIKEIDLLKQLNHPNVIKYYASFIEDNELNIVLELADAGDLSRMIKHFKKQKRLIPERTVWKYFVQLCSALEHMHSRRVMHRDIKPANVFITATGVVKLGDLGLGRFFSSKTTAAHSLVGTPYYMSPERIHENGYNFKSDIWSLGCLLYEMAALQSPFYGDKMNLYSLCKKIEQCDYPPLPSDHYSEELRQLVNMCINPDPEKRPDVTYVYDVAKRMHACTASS
Serine/threonine-protein kinase 38, sequence (Q15208 whole entry): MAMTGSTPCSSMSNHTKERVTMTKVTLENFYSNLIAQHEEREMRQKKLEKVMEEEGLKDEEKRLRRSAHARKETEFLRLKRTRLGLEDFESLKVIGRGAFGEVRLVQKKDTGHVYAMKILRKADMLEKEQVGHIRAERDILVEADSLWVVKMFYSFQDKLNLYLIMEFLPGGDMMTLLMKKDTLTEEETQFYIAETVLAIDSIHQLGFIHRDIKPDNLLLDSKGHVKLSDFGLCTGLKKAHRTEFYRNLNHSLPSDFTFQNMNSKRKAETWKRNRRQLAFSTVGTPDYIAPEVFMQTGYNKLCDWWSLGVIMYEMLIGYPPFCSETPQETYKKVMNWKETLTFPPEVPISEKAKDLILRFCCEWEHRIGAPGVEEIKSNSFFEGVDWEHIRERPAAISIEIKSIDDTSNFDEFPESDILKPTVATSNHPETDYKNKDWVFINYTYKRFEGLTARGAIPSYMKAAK
Activin receptor type-1-like, sequence (P37023 whole entry): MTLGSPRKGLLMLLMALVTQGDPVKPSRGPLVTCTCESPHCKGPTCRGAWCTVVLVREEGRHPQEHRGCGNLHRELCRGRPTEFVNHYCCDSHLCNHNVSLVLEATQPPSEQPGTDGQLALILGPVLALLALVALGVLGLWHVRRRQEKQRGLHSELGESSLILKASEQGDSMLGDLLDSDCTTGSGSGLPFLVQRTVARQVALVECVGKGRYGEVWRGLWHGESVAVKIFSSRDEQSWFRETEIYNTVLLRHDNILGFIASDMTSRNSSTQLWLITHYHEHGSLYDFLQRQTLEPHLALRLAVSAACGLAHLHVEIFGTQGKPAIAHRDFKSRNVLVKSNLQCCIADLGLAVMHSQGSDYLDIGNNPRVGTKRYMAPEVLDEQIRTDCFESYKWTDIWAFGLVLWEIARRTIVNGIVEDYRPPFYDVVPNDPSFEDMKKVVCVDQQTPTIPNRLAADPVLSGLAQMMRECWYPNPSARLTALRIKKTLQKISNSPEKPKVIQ
Tyrosine-protein kinase JAK2, sequence (O60674 whole entry): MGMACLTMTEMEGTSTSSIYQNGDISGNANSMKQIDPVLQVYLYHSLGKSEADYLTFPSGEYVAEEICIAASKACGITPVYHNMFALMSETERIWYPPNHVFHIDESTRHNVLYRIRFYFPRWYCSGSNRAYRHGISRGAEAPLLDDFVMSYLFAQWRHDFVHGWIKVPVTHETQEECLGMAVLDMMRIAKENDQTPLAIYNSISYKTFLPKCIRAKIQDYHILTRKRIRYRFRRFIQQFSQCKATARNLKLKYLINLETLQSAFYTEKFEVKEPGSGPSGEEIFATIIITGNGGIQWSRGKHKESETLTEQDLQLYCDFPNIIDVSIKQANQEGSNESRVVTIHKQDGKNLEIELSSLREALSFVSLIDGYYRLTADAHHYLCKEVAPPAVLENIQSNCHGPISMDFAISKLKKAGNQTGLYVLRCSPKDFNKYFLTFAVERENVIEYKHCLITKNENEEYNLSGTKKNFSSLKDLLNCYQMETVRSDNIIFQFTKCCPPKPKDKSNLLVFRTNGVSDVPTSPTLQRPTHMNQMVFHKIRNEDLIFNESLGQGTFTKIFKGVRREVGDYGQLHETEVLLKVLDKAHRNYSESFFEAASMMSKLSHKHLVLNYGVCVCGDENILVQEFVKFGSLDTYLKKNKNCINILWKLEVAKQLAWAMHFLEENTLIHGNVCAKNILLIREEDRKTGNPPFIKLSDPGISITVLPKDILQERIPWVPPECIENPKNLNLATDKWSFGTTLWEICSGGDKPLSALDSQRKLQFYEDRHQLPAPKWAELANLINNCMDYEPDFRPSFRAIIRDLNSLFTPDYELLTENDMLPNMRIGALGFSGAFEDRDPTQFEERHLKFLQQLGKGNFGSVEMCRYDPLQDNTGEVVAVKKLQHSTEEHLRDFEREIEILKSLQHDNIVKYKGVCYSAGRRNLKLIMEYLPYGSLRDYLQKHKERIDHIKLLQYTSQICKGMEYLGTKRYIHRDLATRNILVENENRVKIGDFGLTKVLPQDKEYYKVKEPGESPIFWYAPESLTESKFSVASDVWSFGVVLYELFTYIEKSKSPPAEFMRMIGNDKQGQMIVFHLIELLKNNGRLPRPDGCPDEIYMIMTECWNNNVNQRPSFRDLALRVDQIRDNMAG
Serine/threonine-protein kinase 38-like, sequence (Q9Y2H1 whole entry): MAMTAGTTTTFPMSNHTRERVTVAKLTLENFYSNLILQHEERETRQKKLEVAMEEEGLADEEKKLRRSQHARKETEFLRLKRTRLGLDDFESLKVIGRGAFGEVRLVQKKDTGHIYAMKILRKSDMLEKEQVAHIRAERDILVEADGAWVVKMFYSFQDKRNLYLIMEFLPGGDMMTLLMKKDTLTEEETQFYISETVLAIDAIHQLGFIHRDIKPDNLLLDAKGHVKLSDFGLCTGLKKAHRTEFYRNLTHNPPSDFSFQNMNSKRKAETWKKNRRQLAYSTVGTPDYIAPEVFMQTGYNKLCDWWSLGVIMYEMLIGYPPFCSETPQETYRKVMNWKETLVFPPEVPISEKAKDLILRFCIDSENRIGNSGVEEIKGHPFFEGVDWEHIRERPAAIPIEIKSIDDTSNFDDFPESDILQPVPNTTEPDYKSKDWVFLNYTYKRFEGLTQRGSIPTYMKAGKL
Cyclin-dependent kinase 10, sequence (Q15131 whole entry): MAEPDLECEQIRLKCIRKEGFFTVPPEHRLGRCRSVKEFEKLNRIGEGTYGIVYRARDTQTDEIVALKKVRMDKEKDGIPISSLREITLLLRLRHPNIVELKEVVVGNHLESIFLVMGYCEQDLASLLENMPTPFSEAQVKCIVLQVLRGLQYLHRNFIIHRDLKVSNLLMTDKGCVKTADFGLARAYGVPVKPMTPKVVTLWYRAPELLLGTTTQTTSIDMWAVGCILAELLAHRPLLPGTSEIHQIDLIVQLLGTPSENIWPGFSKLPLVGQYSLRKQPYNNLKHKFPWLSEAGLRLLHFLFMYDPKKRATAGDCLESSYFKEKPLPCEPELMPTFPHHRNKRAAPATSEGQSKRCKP
MAP kinase-activated protein kinase 3, sequence (Q16644 whole entry): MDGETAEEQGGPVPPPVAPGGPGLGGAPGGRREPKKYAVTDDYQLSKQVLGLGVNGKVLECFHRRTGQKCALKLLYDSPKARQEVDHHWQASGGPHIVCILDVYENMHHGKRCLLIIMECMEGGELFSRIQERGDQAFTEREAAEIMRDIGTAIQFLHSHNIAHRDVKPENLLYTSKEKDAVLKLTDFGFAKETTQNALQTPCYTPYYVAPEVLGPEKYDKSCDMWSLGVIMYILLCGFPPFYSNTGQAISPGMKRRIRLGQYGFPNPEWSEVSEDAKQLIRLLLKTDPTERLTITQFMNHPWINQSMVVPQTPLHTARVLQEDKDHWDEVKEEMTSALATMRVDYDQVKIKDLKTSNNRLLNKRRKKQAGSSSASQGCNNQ

As for `Cc1ccc(S(=O)(=O)Nc2nc3ccccc3nc2Nc2ccc3nsnc3c2)cc1`, the Kd in assay [1], in assay [2], in assay [3] and in [4] was > 30 µM (inactive) in each case.
For the molecule `CCS(=O)(=O)N1CC(CC#N)(n2cc(-c3ncnc4[nH]ccc34)cn2)C1` [BARICITINIB], the Kd in assay [5], in [6], in assay [7] and in assay [4] was > 30 µM (inactive) each time.
Turning to `Cc1cc(Nc2cc(N3CCN(C)CC3)nc(/C=C/c3ccccc3)n2)n[nH]1` [ENMD-2076], the Kd in assay [5], in assay [8], in assay [9] and in assay [10] was > 30 µM (inactive) in each case.
On to `Cc1ccc(NC(=O)c2ccc(CN3CC[C@H](N(C)C)C3)c(C(F)(F)F)c2)cc1Nc1nccc(-c2cncnc2)n1` [BAFETINIB], for which the Kd in [1], in assay [8], in [11], in [6], in [12] and in assay [9] was > 30 µM (inactive) throughout. The Kd in assay [7] was 0.023 µM (active); in assay [3], > 30 µM (inactive); in assay [4], > 30 µM (inactive).
`CNS(=O)(=O)Nc1nccc(Cc2c(C)c3ccc(Oc4ncccn4)cc3oc2=O)c1F` [AVUTOMETINIB]: the Kd in [12], in [9], in [7] and in assay [3] was > 30 µM (inactive) throughout.
As for `O=C(O)[C@]1(Cc2cccc(Nc3nccs3)n2)CC[C@@H](Oc2cccc(Cl)c2F)CC1` [MK-5108], the Kd is > 30 µM (inactive) in assay [11]; > 30 µM (inactive) in assay [13]; > 30 µM (inactive) in assay [6]; 0.025 µM (active) in [12]; > 30 µM (inactive) in assay [9]; > 30 µM (inactive) in assay [7]. Also, the Kd in assay [3] and in assay [10] was > 30 µM (inactive) each time.
For the molecule `CC(=O)Nc1cccc(-n2c(=O)n(C3CC3)c(=O)c3c(Nc4ccc(I)cc4F)n(C)c(=O)c(C)c32)c1` [TRAMETINIB], the Kd in assay [5], in assay [8], in assay [11], in [13], in [6] and in assay [12] was > 30 µM (inactive) in each case. The Kd in [9] and in [7] was > 30 µM (inactive) each time.
Consider `CCCS(=O)(=O)Nc1ccc(F)c(C(=O)c2c[nH]c3ncc(-c4ccc(Cl)cc4)cc23)c1F` [VEMURAFENIB], for which the Kd in assay [8], in assay [11], in assay [13], in [6], in [12] and in assay [2] was > 30 µM (inactive) in each case. The Kd in [3] and in assay [4] was > 30 µM (inactive) throughout.
`COC(=O)[C@@]1(O)C[C@H]2O[C@]1(C)n1c3ccccc3c3c4c(c5c6ccccc6n2c5c31)C(=O)NC4` [K-252A]: the Kd is > 30 µM (inactive) in assay [1]; > 30 µM (inactive) in assay [8]; > 30 µM (inactive) in [11]; > 30 µM (inactive) in assay [9]; > 30 µM (inactive) in assay [7]; 0.041 µM in [2]. Further, the Kd in assay [3] is 0.003 µM; in assay [10] it was > 30 µM (inactive); in [4] it was 2.14 µM (active).
`COc1cc(CCc2cc(NC(=O)c3ccc(N4C[C@@H](C)N[C@@H](C)C4)cc3)n[nH]2)cc(OC)c1` [AZD-4547]: the Kd in assay [1], in assay [5], in assay [2] and in assay [10] was > 30 µM (inactive) throughout.
Turning to `CNC(=O)c1ccc(-c2cnc3ncc(Cc4ccc5ncccc5c4)n3n2)cc1F` [CAPMATINIB], the Kd in assay [5], in [6], in assay [2], in [3] and in [10] was > 30 µM (inactive) throughout.
`CCN1CCN(Cc2ccc(-c3cc4c(N[C@H](C)c5ccccc5)ncnc4[nH]3)cc2)CC1` [AEE-788]: the Kd in assay [1], in [7], in [2], in [3] and in assay [4] was > 30 µM (inactive) in each case.
For the molecule `O=C(Nc1ccc(-c2ccnc(Nc3ccc(N4CCOCC4)cc3)n2)cc1)C1CCCN1` (stereo unspecified) [XL-019], the Kd in assay [1], in assay [13], in assay [7], in assay [2], in assay [3] and in assay [10] was > 30 µM (inactive) each time.
Turning to `COc1cc2nccc(Oc3ccc(NC(=O)NC4CC4)c(Cl)c3)c2cc1C(N)=O` [LENVATINIB], the Kd in [12], in assay [7], in assay [3] and in assay [4] was > 30 µM (inactive) in each case.
Consider `Cc1cc2c(F)c(Oc3ncnn4cc(OC[C@@H](C)OC(=O)[C@H](C)N)c(C)c34)ccc2[nH]1` [BRIVANIB ALANINATE], for which the Kd in [11], in [12], in [9], in assay [7], in [3] and in assay [4] was > 30 µM (inactive) in each case.
As to `COC(=O)N[C@@H](C)CNc1nccc(-c2cn(C(C)C)nc2-c2cc(Cl)cc(NS(C)(=O)=O)c2F)n1` [ENCORAFENIB], the Kd in [8], in [11], in assay [6], in assay [12] and in assay [2] was > 30 µM (inactive) throughout.
As to `Cc1cc(-c2cc(O)ccc2Cl)cc2nnc(Nc3ccc(OCCN4CCCC4)cc3)nc12`, the Kd in [1], in [11], in assay [13], in assay [7], in assay [3] and in assay [4] was > 30 µM (inactive) each time.
Consider `O=C1NC(=O)/C(=C/c2ccc3nccc(-c4ccncc4)c3c2)S1` [GSK-1059615], for which the Kd in [1], in assay [11], in assay [12], in [3] and in [4] was > 30 µM (inactive) in each case.
Turning to `CC(C)Nc1cc(-c2c[nH]c(C(=O)N[C@H](CO)c3cccc(Cl)c3)c2)c(Cl)cn1` [ULIXERTINIB], the Kd in assay [8], in assay [11], in assay [6], in [9], in assay [7] and in [2] was > 30 µM (inactive) in each case. In addition, the Kd in assay [3] was > 30 µM (inactive).

(Values after ChEMBL document CHEMBL3991601, “The target landscape of clinical kinase drugs” (Science, 2017).)
